Measured values published in patent US9371336B2, “Compounds for treating spinal muscular atrophy” (PTC Therapeutics Inc., priority 2012, dated 2016).

Key:
Smn protein = Smn protein assay (HTRF) in cultured cells (SMA patient fibroblasts GM03813); type: cell-based, human; conditions: 48 hours; for EC1.5x for Smn protein expression: SMA patient fibroblast cells (GM03813), HTRF, 7-point concentration data, concentration producing 1.5 times Smn protein vs DMSO vehicle control; for maximum fold (Fold) increase of Smn protein: SMA patient fibroblast cells, 7-point concentration curve, relative to vehicle control
Summary of the method: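 Smn level is expressed as fold over vehicle, from blank-corrected ΔF of the 665/620 nm HTRF ratio. Readout used anti-SMN d2 and kryptate antibodies on RIPA lysates. GM03813 SMA fibroblasts had 48 h exposure at 37° C to seven 3.16-fold compound dilutions, run in triplicate.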

[1] = system: SMN2 minigene mRNA (SMN2-A minigene construct); assay: SMN2 minigene mRNA splicing RT-qPCR assay in cultured cells; type: cell-based, human; conditions: Homo sapiens, HEK293-H; HEK293H cells stably transfected with SMN2-A minigene, 24 hours, 7-point concentration data; concentration giving 1.5-fold SMN2 full length mRNA relative to vehicle-treated cells; read-out: EC1.5x for production of full length SMN2 mRNA
Summary of the method: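 Full-length SMN2 minigene mRNA, measured by exon 7/luciferase-specific RT-qPCR that excludes endogenous SMN1/SMN2, was normalized to GAPDH and expressed relative to vehicle-treated cells via modified ΔΔCt. Stably transfected HEK293H cells received compound (7-point, 3.16-fold series, duplicates) for 24 h at 37 °C.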

With `Cc1cn2cc(-c3cc4ccc(N5CCCN(C)CC5)nc4oc3=O)nc2c(C)n1` [Cpd 91, 3-(6,8-dimethylimidazo[1,2-a]pyrazin-2-yl)-7-(4-methyl-1,4-diazepan-1-yl)-2H-pyrano[2,3-b]pyridin-2-one] the melting point was 243 to 245 °C, the “EC1.5x for Smn protein expression” value (Smn protein) was “**** (an EC1.5×≦0.3 μM is indicated by four stars (****))” and the “maximum fold (Fold) increase of Smn protein” value (shortened to “maximum fold (Fold) increase”) (Smn protein) was “***** (a fold increase >1.65 is indicated by five stars (*****))”. It also gave an EC (1.5-fold) [1] of no more than 0.1 µM.

With `C[C@@H]1CN[C@@H](C)CN1c1ccc2cc(-c3cn4cccc(F)c4n3)c(=O)oc2n1` [Cpd 92, 7-[(2R,5S)-2,5-dimethylpiperazin-1-yl]-3-(8-fluoroimidazo[1,2-a]pyridin-2-yl)-2H-pyrano[2,3-b]pyridin-2-one] the melting point was 210 to 212 °C, the “EC1.5x for Smn protein expression” value (Smn protein) was “**** (an EC1.5×≦0.3 μM is indicated by four stars (****))” and the “maximum fold (Fold) increase” value (Smn protein) was “**** (a fold increase between >1.5 and ≦1.65 is indicated by four stars (****))”. It also gave an EC (1.5-fold) [1] of no more than 0.1 µM.

In the case of `C[C@@H]1CN[C@@H](C)CN1c1ccc2cc(-c3cn4cccc(Cl)c4n3)c(=O)oc2n1` [Cpd 94, 3-(8-chloroimidazo[1,2-a]pyridin-2-yl)-7-[(2R,5S)-2,5-dimethylpiperazin-1-yl]-2H-pyrano[2,3-b]pyridin-2-one], the melting point is reported as 172 to 175 °C, the “EC1.5x for Smn protein expression” value (Smn protein) is reported as “**** (an EC1.5×≦0.3 μM is indicated by four stars (****))” and the “maximum fold (Fold) increase” value (Smn protein) is reported as “**** (a fold increase between >1.5 and ≦1.65 is indicated by four stars (****))”. It also gave an EC (1.5-fold) [1] of no more than 0.1 µM.

For `Cc1cn2cc(-c3cc4ccc(N5C[C@H](C)NC[C@H]5C)nc4oc3=O)nc2c(C)n1` [Cpd 95, 3-(6,8-dimethylimidazo[1,2-a]pyrazin-2-yl)-7-[(2R,5S)-2,5-dimethylpiperazin-1-yl]-2H-pyrano[2,3-b]pyridin-2-one], the melting point was 190 to 192 °C, the “EC1.5x for Smn protein expression” value (Smn protein) was “**** (an EC1.5×≦0.3 μM is indicated by four stars (****))” and the “maximum fold (Fold) increase” value (Smn protein) was “***** (a fold increase >1.65 is indicated by five stars (*****))”. It also gave an EC (1.5-fold) [1] of no more than 0.1 µM.

For `Cc1ccn2cc(-c3cc4ccc(N5C[C@H](C)N(C)C[C@H]5C)nc4oc3=O)nc2c1` [Cpd 96, 3-(7-methylimidazo[1,2-a]pyridin-2-yl)-7-[(2R,5S)-2,4,5-trimethylpiperazin-1-yl]-2H-pyrano[2,3-b]pyridin-2-one], the melting point was 114 to 117 °C, the “maximum fold (Fold) increase” value (Smn protein) was “*** (a fold increase between >1.35 and ≦1.5 is indicated by three stars (***))” and the EC (1.5-fold) [1] was 0.3 to 1 µM.

In the case of `C[C@@H]1CN(C)[C@@H](C)CN1c1ccc2cc(-c3cn4cccc(F)c4n3)c(=O)oc2n1` [Cpd 97, 3-(8-fluoroimidazo[1,2-a]pyridin-2-yl)-7-[(2R,5S)-2,4,5-trimethylpiperazin-1-yl]-2H-pyrano[2,3-b]pyridin-2-one], the melting point is reported as 194 to 197 °C, the “EC1.5x for Smn protein expression” value (Smn protein) is reported as “** (an EC1.5× between >1 and ≦3 μM is indicated by two stars (**))” and the “maximum fold (Fold) increase” value (Smn protein) is reported as “**** (a fold increase between >1.5 and ≦1.65 is indicated by four stars (****))”. For the same compound, the EC (1.5-fold) [1] was 0.1 to 0.3 µM.

With `C[C@@H]1CN(C)[C@@H](C)CN1c1ccc2cc(-c3cn4cccc(Cl)c4n3)c(=O)oc2n1` [Cpd 98, 3-(8-chloroimidazo[1,2-a]pyridin-2-yl)-7-[(2R,5S)-2,4,5-trimethylpiperazin-1-yl]-2H-pyrano [2,3-b]pyridin-2-one] the melting point was 191 to 196 °C, the “EC1.5x for Smn protein expression” value (Smn protein) was “** (an EC1.5× between >1 and ≦3 μM is indicated by two stars (**))” and the “maximum fold (Fold) increase” value (Smn protein) was “**** (a fold increase between >1.5 and ≦1.65 is indicated by four stars (****))”. For the same compound, the EC (1.5-fold) [1] was 0.1 to 0.3 µM.

With `Cc1ccn2cc(-c3cc4ccc(N5C[C@@H](C)N[C@@H](C)C5)nc4oc3=O)nc2n1` [Cpd 99, 7-[(3R,5S)-3,5-dimethylpiperazin-1-yl]-3-(7-methylimidazo[1,2-a]pyrimidin-2-yl)-2H-pyrano[2,3-b]pyridin-2-one] the melting point was 270 to 273 °C, the “maximum fold (Fold) increase” value (Smn protein) was “*** (a fold increase between >1.35 and ≦1.5 is indicated by three stars (***))” and the EC (1.5-fold) [1] was 0.1 to 0.3 µM.
